Experimental data from patent US5726203A, “Qinghaosu derivatives against AIDS” (priority 1993, dated 1998).

Columns and labels:
[1] = test system: HIV-1 (MT4); test: Anti-HIV effect on MT4 cells, virus antigen expression (immunoenzymatic method); assay type: cell-based
Source text: The virus used was HIV-1 which had been obtained from Professor Montagnier of the Pastear Institute, France. The virus titer used in the experiment was 1×10^4 TCID50 /ml. The cell culture used was CEM cell line which was cultivated in the HIV laboratory of Institute of Virology, Chinese Academy of Preventive Medicine, for cultivation storage of HIV-1.
The compounds used in the experiment were qinghaosu, dihydroqinghaosu, Artesunate, Artemether, dihydroqinghaosu-methylcarbamate, dihydroqinghaosu-benzenecarbamate, qinghaosu-morpholinyl propylether maleate, dihydroqinghaosu-diethyl amino ethyl ether maleate, deoxyqinghaosu-morpholinyl ethyl ether maleate, qinghaosu-morpholinyl propanol ether maleate, qinghaosu-3,5-dimonpholinyl methyl-4-hydroxy benzyl ether maleate, dihydroqinghaosu-m-chlorobenzoate, qinghaosu-3-pyrrolidinylmethyl-4-hydroxybenzoate oxalate, and qinghaosu-3-morpholinylmethyl-4-hydroxybenzoate oxalate. […] The concentration of the original solution of these compounds were all 1 mg/ml.
(§1) a. Freshly cultured MT4 cells (5×10^5 /ml) were co-cultivated with the virus fluid (10^3 TCID50 /ml) in a CO2 incubator at 37° C. for 1-1.5 hours. RPMI 1640 complete medium (containing 10% Bovine serum and antibiotics, such as penicillin) was used to wash the unbound virus.
(§2) Complete medium was added to correct the concentration for use.
(§3) The experiment was carried out on the plates with 96 wells. 0.1 ml of the above-mentioned infected MT4 cell suspension was added into each well, and then 0.1 ml of various concentrations of the drugs were added. […] Each concentration of the drugs was added into two wells. Both the experiment group and the control group were incubated in a CO2 incubator at 37° C. The drug solution were changed 3 days later, and the following observations were carried out 6 days afterwards.
b. Observation on the growth situation of cells. Trypan blue dye was used to observe the quantity of live cells in each group.
(§4) c. Determination of the virus antigen expression. The immunoenzymatic method was used to examine the virus antigen expression. Cells from each group were separately smeared in two wells. They were fixed with cold acetone, HIV-positive serum was dropped into the wells. After incubated in a CO2 incubator at 37° C. for 30 minutes, they were washed with PBS for 3 times. Enzyme-labelled SPA was dropped into the wells. They were incubated in the same condition for 30 minutes, washed with PBS for 3 times, and then put in substrate solution to stain for 2-3 minutes, washed with distilled water, and observed under microscope. Normal cells were colorless, whereas virus-carrying cells appeared browrish red.
The mark used were as follows:
The experiment was repeated two to three times.
The concentration of the original fluid of these compounds were all 1 mg/ml. 0.1 ml was taken and added into 0.1 ml of virus-carrying cell suspension, thus the reaction concentrations were as follows: in the original fluid group, 0.1 mg/0.2 ml, i.e., 0.5 mg/ml; in 1×10^-1group, 0.05 mg/ml; in 1×10^-2 group, 0.005 mg/ml; in 1×10^-3 group, 0.0005 mg/ml, i.e., 0.5 μg/ml; and on the analogy of this.

[2] = test system: U937 HIV-1; test: Inhibition effect on HIV-1 infected U937 cells (macrophage cell line), HIV antigen test (IE); assay type: cell-based; conditions: for Antigen test (IE): U937 HIV-1
Procedure: as §1, §2, §3, §4
(§5) Furthermore, a part of the compounds according to the present invention were used to test their inhibition effect on U937 cell line (macrophage cell line)according to the methods in Experiment 1.

[3] = test system: U937 HIV-1; test: Inhibition effect on HIV-1 infected U937 cells, activity of reverse transcriptase; assay type: cell-based; conditions: control 24502
Source text: as §5

[4] = test system: HIV; conditions: cited from earlier work
[5] = test system: virus within infected macrophages; conditions: cited from earlier work
[6] = cited from earlier work
[7] = test system: Plasmodium Berghei; test: Peters' four day inhibition test in mice, erythrocytic stage of Plasmodium Berghei; assay type: in vivo; conditions: once a day D0-D3, Hybrid Kunming strain mice, read-out: SD50 (the source's name)
Source text: Effect on Erythrocytic Stage of Plasmodium Berghei 1. "Four day inhibition test" in mice To determinate the SD50 with Peters' "four day inhibition test". Hybrid Kunming strain mice, body weight 18-22 g, were inculated with 1×10^7 parasites infected RBC intraperitoneally on D0. Dihydroqinghaosu-methylcarbamate, dihydroqinghaosu-butylcarbamate, dihydroqinghaosu-benzenecarbamate and dihydroqinghaosu-4-nitrobenzenecarbamate with different concentration were given once a day from D0 -D3. Blood smears from mouse's tail were made on D4, stained with Gimsa reagent and examined under microscope to count the infected and uninfected erthrocyte to get infected rate. Inhibitory rates of different dosages were calculated by following formula. The SD50 was calculated by the simplified probit analysis: [formula]

[8] = Acute toxicity in mice; assay type: in vivo; conditions: for LD50: mouse, in vivo, po
Procedure: Animals: Hybrid swiss strain mice (provided by Animal House of Institute of Chinese Mateia Media, China Academy of Traditional Chinese Medicine), 20-22 grams, less than 6 weeks age of both sexes fed in laboretory for 3-5 days observation and a random taking food and drinking.
Drugs: Dihydroqinghaosu-methylcarbamate and dihydroqinghaosu-benzenecarbamate.
Above two drugs in powder form were dissolved into peanut oil. The biggest dose were 2000 mg/kg and 2161 mg/kg respectively. The distances between two dose groups were 0.7 and 0.68 respectively, with 5 dose groups each drugs.
Method: The mice were given single dose of above compound respectively intragastrically, the acute intoxication manifestrations were observed the LD value (LD5, LD50 and LD95) and B value were determined by three days mortality.

[9] = Subacute toxicologic study; conditions: in vivo, read-out: basic safe dosage
[10] = test system: HIV-infected macrophages; conditions: cited from earlier work
[11] = F + M, single dose intragastrically
[12] = F, single dose intragastrically
[13] = M, single dose intragastrically

Cc1cn([C@H]2C[C@H](N=[N+]=[N-])[C@@H](CO)O2)c(=O)[nH]c1=O [AZT, 3'-azido-3'-deoxythymidine, reference compound]
effect on HIV-1 (MT4), virus antigen expression ([1]; 1 × 10^-1 (50 μg/ml)): - (positive cells were not seen in the whole well) | virus-carrying (pink) cells on the smear ([1]; 1×10^-1, 1×10^-2, 1×10^-3 group): entirely no pink cells | effect on HIV-1 (MT4), virus antigen expression ([1]; 1 × 10^-2 (5 μg/ml)): - (positive cells were not seen in the whole well) | effect on HIV-1 (MT4), virus antigen expression ([1]; 1 × 10^-3 (0.5 μg/ml)): - (positive cells were not seen in the whole well) | Antigen test (IE) ([2]; 1 μg/ml): + (there were 2-3 or more positive cells in the whole well) | inhibition on U937 infected HIV-1 ([2]; from Table 2): does not show the inhibition | Activity of reverse transcription (CPM) ([3]; 1 μg/ml): 10865 CPM | anti-HIV activity in vitro [4]: found to possess anti-HIV activity in vitro | inhibitory effect on the virus within infected macrophages [5]: does not exert inhibitory effect on the virus within infected macrophages | toxicity after use ([6]; 4-6 weeks after the use of AZT): inhibition of bone marrow appears, then severe anemia develops

CC1CCC2C(C)C(OC(=O)Nc3ccccc3)OC3OC4(C)CCC1C32OO4 (stereo not shown) [Dihydroqinghaosu-benzenecarbamate]
effect on HIV-1 (MT4), virus antigen expression ([1]; 1 × 10^-1 (50 μg/ml)): - (positive cells were not seen in the whole well) | effect on HIV-1 (MT4), virus antigen expression ([1]; 1 × 10^-2 (5 μg/ml)): - (positive cells were not seen in the whole well) | effect on HIV-1 (MT4), virus antigen expression ([1]; 1 × 10^-3 (0.5 μg/ml)): - (positive cells were not seen in the whole well) | effect on HIV-1 (MT4), virus antigen expression ([1]; 1 × 10^-4 (0.05 μg/ml)): ± (there were only 1-2 doubtful positive cells in whole well) | inhibition on HIV ([1]; according to Table 1): distinct inhibition on HIV | Antigen test (IE) ([2]; 50 μg/ml): - (positive cells were not seen in the whole well) | Activity of reverse transcription (CPM) ([3]; 50 μg/ml): 2305 CPM | ED50 [7]: 0.29 mg/kg | Death distribution of mice, exp./death ([8]; 480 mg/kg, female): 6/0 | Death distribution of mice, exp./death ([8]; 480 mg/kg, female + male): 12/1 | Death distribution of mice, exp./death ([8]; 480 mg/kg, male): 6/1 | Death distribution of mice, exp./death ([8]; 686 mg/kg, female): 6/1 | Death distribution of mice, exp./death ([8]; 686 mg/kg, female + male): 12/3 | Death distribution of mice, exp./death ([8]; 686 mg/kg, male): 6/2 | Death distribution of mice, exp./death ([8]; 980 mg/kg, female): 6/2 | Death distribution of mice, exp./death ([8]; 980 mg/kg, female + male): 12/4 | Death distribution of mice, exp./death ([8]; 980 mg/kg, male): 6/2 | Death distribution of mice, exp./death ([8]; 1400 mg/kg, female): 6/4 | Death distribution of mice, exp./death ([8]; 1400 mg/kg, female + male): 12/7 | Death distribution of mice, exp./death ([8]; 1400 mg/kg, male): 6/3 | Death distribution of mice, exp./death ([8]; 2000 mg/kg, female): 6/6 | Death distribution of mice, exp./death ([8]; 2000 mg/kg, female + male): 12/12 | Death distribution of mice, exp./death ([8]; 2000 mg/kg, male): 6/6 | LD5 [8, 11]: 463.33 mg/kg | LD95 [8, 11]: 2452.08 mg/kg | slope (B) [8, 11]: 4.546 | LD5 [8, 12]: 603.91 mg/kg | LD95 [8, 12]: 1993.51 mg/kg | slope (B) [8, 12]: 6.343 | LD5 [8, 13]: 352.10 mg/kg | LD95 [8, 13]: 3069.59 mg/kg | slope (B) [8, 13]: 3.498 | LD50 [8, 11]: 1070 mg/kg | LD50 [8, 12]: 1100 mg/kg | LD50 ([8]; P.O. (per os)): 1060 mg/kg | LD50 ([8]; single dose intragastrically): 1040 mg/kg | NOAEL [9]: 54 mg/kg/day

Trichosanthin
toxic substance from treated HIV-infected macrophages [10]: produced and released a soluble toxic substance which might exert serious destructive effect to human brain cells | neurotoxicity in clinical trial ([6]; clinical trial): neurotoxicity in clinical trial, and in severe cases temporary dementia and even coma appeared
